Reference: PubChem BioAssay AID328 (DTP/NCI, 2004)
Values joined by “and” are separate entries in the source; they are usually repeats but may differ in a detail not shown here. Equal entries are not always repeated. Toxic doses and inconclusive results are not listed. The calls were made as follows: active = survival T/C of 150% or more; inactive = T/C below 125% in these data.

System: BDF1 mice, P388 leukemia ip, median survival T/C
Test: NCI In Vivo Anticancer Drug Screen. Data for tumor model P388 Leukemia (intraperitoneal) in B6D2F1 (BDF1) mice
Settings: endpoint: median survival time, higher = longer survival
Summary of the method: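 Compound-treated tumour-bearing mice were compared with vehicle-treated controls. Survival was recorded, and the value is the treated-group measurement divided by the control-group measurement (T/C).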

[1] = dose: 100.0 mg/kg/injection, schedule: Q04DX003 (ip), vehicle: saline with Tween-80
[2] = dose: 200.0 mg/kg/injection, schedule: Q04DX003 (ip), vehicle: saline with Tween-80
[3] = dose: 400.0 mg/kg/injection, schedule: Q04DX003 (ip), vehicle: saline with Tween-80
[4] = dose: 50.0 mg/kg/injection, schedule: Q01DX009 (ip), vehicle: saline
[5] = dose: 100.0 mg/kg/injection, schedule: Q01DX009 (ip), vehicle: saline
[6] = dose: 100.0 mg/kg/injection, schedule: Q01DX009 (ip), vehicle: water
[7] = dose: 200.0 mg/kg/injection, schedule: Q01DX009 (ip), vehicle: saline
[8] = dose: 50.0 mg/kg/injection, schedule: Q01DX009 (ip), vehicle: saline with Tween-80
[9] = dose: 100.0 mg/kg/injection, schedule: Q01DX009 (ip), vehicle: saline with Tween-80
[10] = dose: 200.0 mg/kg/injection, schedule: Q01DX009 (ip), vehicle: saline with Tween-80
[11] = dose: 6.25 mg/kg/injection, schedule: Q01DX009 (ip), vehicle: saline with Tween-80
[12] = dose: 12.5 mg/kg/injection, schedule: Q01DX009 (ip), vehicle: saline with Tween-80
[13] = dose: 400.0 mg/kg/injection, schedule: Q01DX009 (ip), vehicle: saline with Tween-80
[14] = dose: 25.0 mg/kg/injection, schedule: Q01DX009 (ip), vehicle: saline with Tween-80
[15] = dose: 100.0 mg/kg/injection, schedule: Q04DX003 (ip), vehicle: saline

Measured: T/C

O=C(O)c1ccccc1NC(=O)C(F)(F)F
inactive: dose: 25.0 mg/kg/injection, schedule: Q04DX003 (ip), vehicle: saline sonified 91 % of control | dose: 50.0 mg/kg/injection, schedule: Q04DX003 (ip), vehicle: saline sonified 91 % of control | dose: 100.0 mg/kg/injection, schedule: Q04DX003 (ip), vehicle: saline sonified 91 % of control

COc1ccc(C2c3cc4c(c(OC)c3CC(CO)C2C(=O)O)OCO4)cc1OC (configuration not stated)
inactive: dose: 9.38 mg/kg/injection, schedule: Q01DX010 (ip), vehicle: water 95 % of control | dose: 18.75 mg/kg/injection, schedule: Q01DX010 (ip), vehicle: water 90 % of control | dose: 37.5 mg/kg/injection, schedule: Q01DX010 (ip), vehicle: water 90 % of control | dose: 50.0 mg/kg/injection, schedule: Q01DX001 (ip), vehicle: water 110 % of control | dose: 75.0 mg/kg/injection, schedule: Q01DX010 (ip), vehicle: water 110 % of control | dose: 100.0 mg/kg/injection, schedule: Q01DX001 (ip), vehicle: water 100 % of control | dose: 150.0 mg/kg/injection, schedule: Q01DX010 (ip), vehicle: water 115 % of control | dose: 200.0 mg/kg/injection, schedule: Q01DX001 (ip), vehicle: water 110 % of control | dose: 400.0 mg/kg/injection, schedule: Q01DX001 (ip), vehicle: water 110 % of control

CCN(CC)c1c(C)nnc2c3c(-c4ccccc4)c(-c4ccccc4)nnc3nn12
inactive: dose: 50.0 mg/kg/injection, schedule: Q04DX003 (ip), vehicle: saline with Tween-80 91 % of control and 97 % of control (2×) | [1] 88 % of control and 91 % of control and 97 % of control | [2] 97 % of control and 108 % of control and 123 % of control | [3] 92 % of control and 113 % of control

COc1cc(C2c3cc4c(cc3C(O)C3COC(=O)C23)OCO4)cc(O)c1OC (configuration not stated)
inactive: dose: 2.0 mg/kg/injection, schedule: Q01DX009 (ip), vehicle: saline 120 % of control | dose: 4.0 mg/kg/injection, schedule: Q01DX009 (ip), vehicle: saline 105 % of control

CCCC(=O)Oc1ccc2c(C)cc(=O)oc2c1
inactive: [1] 104 % of control | [2] 90 % of control | [3] 100 % of control

Cc1ccc(NCC(O)CN2CCN(CC(O)CNc3ccc(C)cc3)CC2)cc1 (configuration not stated)
inactive: dose: 100.0 mg/kg/injection, schedule: Q01DX001 (ip), vehicle: Klucel (hydroxypropylcellulose) (HPC) 104 % of control | dose: 200.0 mg/kg/injection, schedule: Q01DX001 (ip), vehicle: Klucel (hydroxypropylcellulose) (HPC) 100 % of control | dose: 400.0 mg/kg/injection, schedule: Q01DX001 (ip), vehicle: Klucel (hydroxypropylcellulose) (HPC) 86 % of control

CSCSCC(NS(=O)(=O)c1ccc(C)cc1)C(=O)O (configuration not stated)
inactive: [1] 104 % of control | [2] 109 % of control | [3] 100 % of control

CNCCN(C)CCN(C)Cc1ccc(OC)cc1
inactive: dose: 25.0 mg/kg/injection, schedule: Q01DX009 (ip), vehicle: water 101 % of control | [4] 111 % of control | dose: 50.0 mg/kg/injection, schedule: Q01DX009 (ip), vehicle: water 110 % of control | [5] 101 % of control | [6] 93 % of control | [7] 104 % of control

CCOC(=O)C1(CCOC)CCCCC1=O (configuration not stated)
inactive: [8] 106 % of control | [9] 117 % of control | [10] 115 % of control

COc1ccccc1/C=N\NC(C)=O
inactive: dose: 25.0 mg/kg/injection, schedule: Q01DX009 (ip), vehicle: Klucel (hydroxypropylcellulose) (HPC) 96 % of control | dose: 25.0 mg/kg/injection, schedule: Q04DX003 (ip), vehicle: Klucel (hydroxypropylcellulose) (HPC) 86 % of control | dose: 50.0 mg/kg/injection, schedule: Q01DX009 (ip), vehicle: Klucel (hydroxypropylcellulose) (HPC) 107 % of control | dose: 100.0 mg/kg/injection, schedule: Q01DX009 (ip), vehicle: Klucel (hydroxypropylcellulose) (HPC) 92 % of control | dose: 100.0 mg/kg/injection, schedule: Q04DX003 (ip), vehicle: Klucel (hydroxypropylcellulose) (HPC) 86 % of control

O=C1N(Cl)C(=O)C(c2ccc(C(F)(F)F)cc2)(c2ccc(C(F)(F)F)cc2)N1Cl
inactive: dose: 1.56 mg/kg/injection, schedule: Q01DX009 (ip), vehicle: saline with Tween-80 104 % of control | dose: 3.12 mg/kg/injection, schedule: Q01DX009 (ip), vehicle: saline with Tween-80 100 % of control | [11] 100 % of control | [12] 109 % of control | [1] 100 % of control | [2] 109 % of control

CC(=O)Nc1c(Cl)c(Cl)c2c(c1Cl)C(=O)c1cc(Cl)ccc1-2
inactive: [9] 90 % of control | [1] 90 % of control | [2] 90 % of control | [3] 95 % of control

CC1COB(c2ccccc2)OCC(C)N1CNC(=O)C1=C(O)C2(O)C(O)=C3C(=O)C4C(O)=CC=CC4C(C)(O)C3CC2C(N(C)C)C1=O (configuration not stated)
inactive: [4] 109 % of control | [5] 98 % of control | [7] 111 % of control

O=S(=O)(Nc1ccc(O)c(Cl)c1)c1ccccc1
inactive: [9] 86 % of control | [10] 100 % of control | [13] 104 % of control

COC(=O)C/C(=C/C=C1/C(=O)ON=C1C)c1c(C)[nH]oc1=O
inactive: [5] 90 % of control | [7] 100 % of control | dose: 400.0 mg/kg/injection, schedule: Q01DX009 (ip), vehicle: saline 95 % of control

CCOC(=O)C1=C(Nc2ccc([N+](=O)[O-])cc2)CCCC1
inactive: [4] 87 % of control

Cc1nc2nc(C(F)(F)F)[nH]c2nc1C
inactive: [14] 99 % of control | [8] 105 % of control | [9] 102 % of control | [10] 94 % of control

C1CN(CC2COC(CN3CCOCC3)CO2)CCO1 (configuration not stated)
inactive: [15] 114 % of control | dose: 200.0 mg/kg/injection, schedule: Q04DX003 (ip), vehicle: saline 104 % of control | dose: 400.0 mg/kg/injection, schedule: Q04DX003 (ip), vehicle: saline 104 % of control

CC(=O)Nc1ccc(S(=O)(=O)N/N=C\c2ccc(Cl)c(Cl)c2)cc1
inactive: [11] 99 % of control | [12] 98 % of control | [14] 96 % of control

Cc1nc(N)cc(=O)[nH]1
inactive: [6] 105 % of control | dose: 200.0 mg/kg/injection, schedule: Q01DX009 (ip), vehicle: water 110 % of control | dose: 400.0 mg/kg/injection, schedule: Q01DX009 (ip), vehicle: water 95 % of control

CN(C)c1ccc(/C=C/c2ccnc3c(N)cccc23)cc1
inactive: dose: 100.0 mg/kg/injection, schedule: Q04DX002 (ip), vehicle: saline with Tween-80 110 % of control | dose: 200.0 mg/kg/injection, schedule: Q04DX002 (ip), vehicle: saline with Tween-80 113 % of control | dose: 400.0 mg/kg/injection, schedule: Q04DX002 (ip), vehicle: saline with Tween-80 116 % of control

O=c1ccc2c([nH]1)CCC2
inactive: [14] 86 % of control | dose: 25.0 mg/kg/injection, schedule: Q04DX003 (ip), vehicle: saline 100 % of control | [8] 90 % of control | dose: 50.0 mg/kg/injection, schedule: Q04DX003 (ip), vehicle: saline 95 % of control | [9] 95 % of control | [15] 100 % of control

NC(=O)c1ccc(-c2c3ccccc3cc3c2ccc2ccccc23)cc1
inactive: [8] 95 % of control | [9] 89 % of control | [10] 89 % of control | [13] 106 % of control
